Results: PMC5760633, “Determining direct binders of the Androgen Receptor using a high-throughput Cellular Thermal Shift Assay” (Scientific Reports, 2018)
Where a chain is given by its changes, count along the chain named. Where two headings read alike, the source gives them in different places.

How the values were obtained:
[1] = target: T1, Androgen Receptor (AR) (Homo sapiens, UniProt P10275, T878A); experiment: CETSA HT ITDRF at 46 °C, agonist mode, LNCaP cells; format: binding
T1 construct: an alternative AR-positive prostate cancer cell line, LNCaP; endogenous in cells; host or cells: LNCaP
T1 sequence (P10275 1-920 T878A): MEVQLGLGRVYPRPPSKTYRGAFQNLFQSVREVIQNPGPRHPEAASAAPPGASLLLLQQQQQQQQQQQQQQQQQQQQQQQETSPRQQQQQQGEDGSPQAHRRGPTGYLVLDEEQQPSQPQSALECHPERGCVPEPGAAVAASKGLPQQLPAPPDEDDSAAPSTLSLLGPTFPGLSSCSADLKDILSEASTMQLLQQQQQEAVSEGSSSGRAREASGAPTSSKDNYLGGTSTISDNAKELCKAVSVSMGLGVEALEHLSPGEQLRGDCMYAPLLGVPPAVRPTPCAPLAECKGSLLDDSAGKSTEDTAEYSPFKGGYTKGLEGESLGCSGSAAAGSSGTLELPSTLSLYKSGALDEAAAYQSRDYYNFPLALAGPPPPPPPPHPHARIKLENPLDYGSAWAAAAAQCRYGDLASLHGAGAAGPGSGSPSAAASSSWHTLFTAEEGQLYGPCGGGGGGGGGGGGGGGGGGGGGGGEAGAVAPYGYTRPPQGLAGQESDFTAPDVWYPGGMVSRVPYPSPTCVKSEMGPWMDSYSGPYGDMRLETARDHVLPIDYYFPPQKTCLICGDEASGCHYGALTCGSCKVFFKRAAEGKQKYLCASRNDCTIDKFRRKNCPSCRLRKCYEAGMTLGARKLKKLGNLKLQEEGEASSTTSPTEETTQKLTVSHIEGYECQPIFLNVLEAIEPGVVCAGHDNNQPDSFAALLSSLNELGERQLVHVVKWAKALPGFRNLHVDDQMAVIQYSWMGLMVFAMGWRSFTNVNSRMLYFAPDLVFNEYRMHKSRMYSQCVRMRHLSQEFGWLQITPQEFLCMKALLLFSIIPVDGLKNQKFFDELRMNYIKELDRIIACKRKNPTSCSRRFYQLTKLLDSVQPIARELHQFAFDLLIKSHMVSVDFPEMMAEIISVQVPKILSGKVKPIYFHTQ

[2] = system: AR-driven transcription (ARE-Luciferase); experiment: AR-driven transcription ARE Luciferase reporter assay in CWR22Pc-R1-AD1 cells; format: cell-based, human;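 further: cells stably carrying an ARE-driven firefly luciferase reporter, with luminescence as read-out, tested in phenol red free RPMI containing 10% charcoal stripped FBS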
Experimental: 15 µL 2x Steady-Glo® reagent (Promega) was added per well and incubated 15 min in the dark before reading luminescence using an EnVision platereader. Experiments were performed in phenol red free RPMI media supplemented with 10% charcoal stripped FBS.

[3] = system: total cellular AR; experiment: CETSA HT control without heat shock and without exogenous DHT (total AR); format: cell-based, human
[4] = target: T2, Androgen Receptor (AR) (Homo sapiens, UniProt P10275, H875Y); experiment: CETSA HT ITDRF at 46 °C, agonist mode (no exogenous DHT), CWR22Pc-R1-AD1 cells; format: binding; conditions: for compound incubation time at which AR thermal stabilisation is seen: time-course
T2 construct: exclusively expresses a structurally full-length AR containing a H874Y mutation; endogenous in cells; host or cells: CWR22Pc-R1-AD1
T2 sequence (P10275 1-920 H875Y): T1 sequence (P10275 1-920 T878A) with H875Y, A878T

[5] = target: T2, Androgen Receptor (AR); experiment: CETSA HT ITDRF at 46 °C, antagonist mode in the presence of 1 nM DHT, CWR22Pc-R1-AD1 cells; format: binding; conditions: for AR target engagement (CETSA HT), 2 h, IC50: CWR22Pc-R1-AD1 cells
Experimental: [sequence] experiments were performed in a plate-based, automation-compatible assay setup, as described in Supplementary Fig. S2e. […] Internal standard controls were included on each plate (Supplementary Fig. S10). […] 10 µL of cells were seeded per well of the PCR plate using a Multidrop Combi dispensor, covered with a plate lid, briefly centrifuged, and incubated under standard tissue culture conditions for 2 h or indicated timepoint. […] Cells were lysed by addition of 10 µL/well 2x SureFire Lysis Buffer using a Multidrop Combi. […] Antibody and AlphaScreen reagent, prepared as above, were added by Multidrop Combi (6 µL/well). Plates were incubated in the dark 16 h and analysed using an EnVision platereader.

[6] = Homo sapiens, 24 h; read-out: AR-driven transcription (ARE-Luciferase), 24 h, IC50
[7] = Homo sapiens, 24 h; read-out: ARE-Luciferase response pIC50 (converted)
[8] = Supplementary Table S1; 24 h, 1 nM DHT
[9] = 2 h compound incubation, no exogenous DHT, no 46 °C heat shock
[10] = Supplementary Table S1, 2 h, 46 °C
[11] = AR target engagement (CETSA HT), 2 h, IC50, CWR22Pc-R1-AD1 cells, 1 nM DHT, 46 °C heat shock
[12] = CWR22Pc-R1-AD1 cells, 1 nM DHT, 24 h; read-out: AR-driven transcription (ARE-Luciferase), 24 h, IC50
[13] = 1 nM DHT, 2 h, 46 °C heat shock
[14] = Supplementary Table S1, 1 nM DHT, 2 h, 46 °C, one technical repeat, read-out: CETSA HT response pIC50 (converted)

SMILES | IC50 [2, 6] [nM] | IC50 [2, 7] [nM] | Conclusion: activity in ARE-Luciferase assay [2, 8] | Conclusion: activity in CETSA HT [5, 10] | IC50 [5, 11] [nM] | other results
CC(C)(O)C(=O)Nc1ccc([N+](=O)[O-])c(C(F)(F)F)c1 [Hydroxyflutamide] | 135 | 135 | Active | Active | – | AR thermal stabilisation / agonist binding mode by compound alone ([1]; LNCaP cells (AR T877A)): did not show any evidence of binding as an agonist; effect on total AR (no heat shock) [3, 9]: do not reduce total AR; AR thermal stabilisation in time-course of compound incubation ([4]; 10 minutes up to 6 hours incubation): No thermal; AR thermal stabilisation / target engagement by compound alone ([4]; no exogenous agonist): did not thermally stabilise AR; temporal analysis of target engagement (competition of DHT) ([5]; 1 nM DHT, incubation 10 minutes – 6 hours): increasing competition of DHT from AR over time
C[C@]12CCC(=O)C=C1CC[C@@H]1[C@@H]2C(=O)C[C@]2(C)C(=O)CC[C@@H]12 [Andrenosterone] | – | – | – | – | – | EC50 ([1]; read-out: EC50 for AR thermal stabilisation (ITDRF CETSA), LNCaP cells, agonist alone): 70.1 nM; EC50 ([4]; agonist alone, read-out: EC50 for in-cell AR target engagement (ITDRF CETSA)): 50.6 nM; compound incubation time at which AR thermal stabilisation is seen [4]: at least 30 minutes; compound incubation time at which AR thermal stabilisation is seen ([4]; listed as andrenosterone): 30 min
O=C(Nc1ccc([N+](=O)[O-])cc1Cl)c1cc(Cl)ccc1O [Niclosamide] | 955 | 955 | Active | – | – | –
Cc1sc2c(c1C)C(c1ccc(Cl)cc1)=N[C@@H](CC(=O)Nc1ccc(O)cc1)c1nnc(C)n1-2 [OTX-015] | 214 | 214 | Partial | Inactive | > 30000 | –
O=C(O)c1ccc(CN2CCC(CN[C@@H]3C[C@H]3c3ccccc3)CC2)cc1 [GSK2879522] | – | – | Inactive | – | – | IC50 [2, 12]: > 30000 nM
CN1CCN(c2ccc(C(=O)Nc3n[nH]c4ccc(Cc5cc(F)cc(F)c5)cc34)c(NC3CCOCC3)c2)CC1 [Entrectinib] | 11200 | 11200 | Active | Inactive | > 30000 | effect on total AR (no heat shock) [3, 9]: do not reduce total AR
CC(C)c1cc(C(=O)N2Cc3ccc(CN4CCN(C)CC4)cc3C2)c(O)cc1O [Onalespib] | 537 | 537 | Active | Active | – | effect on total AR (no heat shock) [3, 9]: reduces total AR; AR target engagement (CETSA HT), 2 h, IC50 [5, 13]: Reduces total AR; IC50 [5, 14]: 1050 nM
CO[C@H]1CNC[C@@H](OCC2CCC(F)(F)CC2)[C@@H]1Nc1ncc(-c2cncc(C)c2)c2cc(C)c(=O)[nH]c12 [GSK8814] | > 30000 | – | Inactive | Inactive | > 30000 | –
CCN(c1cc(-c2ccc(CN3CCOCC3)cc2)cc(C(=O)NCc2c(C)cc(C)[nH]c2=O)c1C)C1CCOCC1 [EPZ-6438] | – | – | Inactive | Inactive | > 30000 | –
C[C@](O)(COc1ccc(C#N)cc1)C(=O)Nc1ccc(C#N)c(C(F)(F)F)c1 [MK-2866] | – | – | – | – | – | IC50 ([2]; Homo sapiens, 24 h, read-out: AR-driven transcription (ARE-Luciferase), 24 h, IC50): 170 nM; IC50 ([2]; Homo sapiens, 24 h, read-out: ARE-Luciferase response pIC50 (converted)): 170 nM; effect on total AR (no heat shock) [3]: do not reduce total AR; Conclusion: activity in CETSA HT [5]: Active; temporal analysis of target engagement (competition of DHT) [5]: increasing competition of DHT from AR over time
CC[C@H](C)n1cc(C)c2c(C(=O)NCc3c(C)cc(C)[nH]c3=O)cc(-c3ccc(N4CCNCC4)nc3)cc21 [GSK-126] | – | – | Inactive | – | – | IC50 [2, 12]: > 30000 nM
CS(=O)(=O)c1ccc(-c2cnc(NCc3ccco3)n3cnnc23)cc1 [EED-226] | > 30000 | – | Inactive | Inactive | > 30000 | –
Cc1cc(-c2ncc(CC(=O)Nc3ccc(-c4cnccn4)cn3)cc2C)ccn1 [WNT-974] | > 30000 | – | Inactive | Inactive | > 30000 | –
CN(C)[C@H]1CN(C2CCc3cccc(F)c32)C[C@@H]1c1ccc(N2CCN(S(C)(=O)=O)CC2)cc1 (stereo partly drawn) [A-395] | – | – | Inactive | – | – | IC50 [2, 12]: > 30000 nM
Cc1sc2c(c1C)C(c1ccc(Cl)cc1)=N[C@@H](CC(=O)OC(C)(C)C)c1nnc(C)n1-2 [JQ1] | – | – | Partial | – | – | IC50 [2, 12]: 302 nM
C[C@]12CC[C@H](O)CC1=CC[C@@H]1[C@@H]2CC[C@]2(C)C(c3cccnc3)=CC[C@@H]12 [Abiraterone] | > 30000 | – | Inactive | Inactive | > 30000 | –
CCNC(=O)c1noc(-c2cc(C(C)C)c(O)cc2O)c1-c1ccc(CN2CCOCC2)cc1 [NVP-AUY-922] | 89 | 89.1 | Active | Active | – | effect on total AR (no heat shock) [3, 9]: reduces total AR; AR target engagement (CETSA HT), 2 h, IC50 [5, 13]: Reduces total AR; IC50 [5, 14]: 955 nM
C=CCNC1=C2C[C@@H](C)C[C@H](OC)[C@H](O)[C@@H](C)/C=C(\C)[C@H](OC(N)=O)[C@@H](OC)/C=C\C=C(/C)C(=O)NC(=CC1=O)C2=O [Tanespimycin] | 3200 | 3240 | Active | – | – | –
COc1ccc(/C=C/C(=O)/C=C(O)/C=C/c2ccc(OC)c(OC)c2)cc1OC [ACS-J9] | – | – | Active | – | – | IC50 [2, 12]: > 10000 nM
Oc1nc(-c2ccc(C(F)(F)F)cc2)nc2c1CSCC2 [XAV-939] | > 30000 | – | Inactive | Inactive | > 30000 | –
CO[C@@H](C(=O)N1Cc2n[nH]c(NC(=O)c3ccc(N4CCN(C)CC4)cc3)c2C1)c1ccccc1 [Danusertib] | 2600 | 2570 | Active | Inactive | > 30000 | –
